Data as given in patent US20220259212A1, “INHIBITORS OF INDOLEAMINE 2,3-DIOXYGENASE AND/OR TRYPTOPHAN 2,3-DIOXYGENASE” (Idorsia Pharmaceuticals Ltd, priority 2019, published 2022).

Tests used:
IDO1 in SKOV3 cells = molecular target: T1, IDO1 in SKOV3 cells (Homo sapiens, UniProt P14902); assay: Cell-based IDO inhibitory activity in IFNγ-stimulated SKOV3 cells (NFK + kynurenine by LCMS); details: IFNγ 50 ng/ml, 200 uM L-tryptophan, 24 hours
T1 construct: SKOV3 cells (NCI, No. 0503405) which upregulate IDO1 after stimulation with IFNγ; host or cells: SKOV3 cells stimulated with IFNγ
Procedure, shortened: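 SKOV3 cells (4000/well, pre-cultured 24 h) were treated with compound (10 uM-40 nM) plus 200 uM L-tryptophan and 50 ng/ml IFNγ for 24 h at 37° C. N-formylkynurenine plus kynurenine in supernatant was measured by LCMS against a d5-tryptophan internal standard. IC50 was fitted against 0.2% DMSO and reference-inhibitor controls, in duplicate, with repeat measurements averaged.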

[1] = molecular target: T2, Recombinant human TDO comprising amino acids 19-407 (Homo sapiens, UniProt P48775); assay: TDO2 enzymatic assay (NFK quantified by LCMS); type: biochemical; details: 15 nM enzyme, 200 μM L-tryptophan, 30 min pre-incubation, pH7; mean if measured multiple times; read-out: hTDO activity (IC50 in nM)
T2 construct: human TDO comprising amino acids 19-407; hexahistidine (N); made in house; host or cells: E. coli
Procedure, shortened: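 E. coli-expressed N-terminal His-tagged TDO (15 nM) in pH 7 phosphate buffer with ascorbate and catalase, preincubated 30 min at RT with compound (10 μM to 0.5 nM, 0.6% DMSO). Reaction started with 200 μM L-tryptophan for 30 min at RT; NFK measured by LCMS against deuterated internal standard, IC50 by four-parameter fit, duplicates.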

[2] = molecular target: T3, Recombinant full-length human IDO1 (Homo sapiens, UniProt P14902); assay: IDO1 enzymatic assay (NFK quantified by LCMS); type: biochemical; details: 2 nM enzyme, 5 μM L-tryptophan, 30 min pre-incubation, pH6.5; mean if measured multiple times; read-out: hIDO activity (IC50 in nM)
T3 construct: Recombinant full-length human IDO1 with a N-terminal hexahistidine tag; hexahistidine (N); made in house; host or cells: E. coli
Procedure, shortened: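 His-tagged full-length IDO1 (E. coli, 2 nM final) in pH 6.5 phosphate with ascorbate, methylene blue and catalase was preincubated 30 min at RT with compound (10 µM–0.5 nM, 0.6% DMSO), then run 30 min at RT with 5 µM L-Trp. NFK was measured by LCMS against a d5-Trp standard. IC50 came from a four-parameter fit of duplicates.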

T2 sequence (P48775 19-406 limits assumed): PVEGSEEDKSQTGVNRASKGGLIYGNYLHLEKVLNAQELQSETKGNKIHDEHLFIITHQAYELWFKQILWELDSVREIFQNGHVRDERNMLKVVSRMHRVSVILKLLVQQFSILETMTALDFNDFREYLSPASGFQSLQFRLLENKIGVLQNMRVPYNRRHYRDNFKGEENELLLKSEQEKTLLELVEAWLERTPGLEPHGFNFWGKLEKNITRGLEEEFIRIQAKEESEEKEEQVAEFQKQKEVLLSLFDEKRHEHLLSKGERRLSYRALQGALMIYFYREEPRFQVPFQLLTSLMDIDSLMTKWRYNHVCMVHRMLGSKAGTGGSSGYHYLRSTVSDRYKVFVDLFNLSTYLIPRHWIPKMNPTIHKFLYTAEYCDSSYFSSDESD
T1 sequence (P14902 whole entry): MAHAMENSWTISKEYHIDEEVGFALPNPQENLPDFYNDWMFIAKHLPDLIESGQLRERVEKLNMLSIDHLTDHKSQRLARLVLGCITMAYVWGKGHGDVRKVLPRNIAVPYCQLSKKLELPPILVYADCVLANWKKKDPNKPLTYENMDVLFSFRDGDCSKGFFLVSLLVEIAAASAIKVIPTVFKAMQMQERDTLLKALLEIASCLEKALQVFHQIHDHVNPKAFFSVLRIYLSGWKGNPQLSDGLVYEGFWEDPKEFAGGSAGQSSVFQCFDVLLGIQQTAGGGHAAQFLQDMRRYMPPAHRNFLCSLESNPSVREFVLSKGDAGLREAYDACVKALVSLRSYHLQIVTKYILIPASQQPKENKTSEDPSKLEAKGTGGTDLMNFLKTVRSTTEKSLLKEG
T3 sequence (P14902 whole entry): as above

Structure (SMILES)	IC50 (IDO1 in SKOV3 cells) [nM]	IC50 [1] [nM]	IC50 [2] [nM]
COc1ccc(-n2cc([C@H](O)c3c(C4CC4)ncc4cncn34)nn2)cc1F [Example 21, (R)-(6-Cyclopropyl-imidazo[1,5-a]pyrazin-5-yl)-[1-(3-fluoro-4-methoxy-phenyl)-1H-[1,2,3]triazol-4-yl]-methanol]	33.2	> 10200	8.24
COc1ccc(-n2cc([C@H](O)c3c(Cl)ccc4cncn34)nn2)cc1 [Example 30, (R)-(6-Chloro-imidazo[1,5-a]pyridin-5-yl)-[1-(4-methoxy-phenyl)-1H-[1,2,3]triazol-4-yl]-methanol]	52.4	8600	3.68
CCc1ccc2cncn2c1C(O)c1cn(-c2ccc(OC)cc2)nn1 (racemic) [Example 34, rac-(6-Ethyl-imidazo[1,5-a]pyridin-5-yl)-[1-(4-methoxy-phenyl)-1H-[1,2,3]triazol-4-yl]-methanol]	14.5	> 10200	2.97
COc1cc(F)c(-n2cc([C@H](O)c3c(C4CC4)ncc4cncn34)nn2)cc1Cl [Example 25, (R)-[1-(5-Chloro-2-fluoro-4-methoxy-phenyl)-1H-[1,2,3]triazol-4-yl]-(6-cyclopropyl-imidazo[1,5-a]pyrazin-5-yl)-methanol]	33	> 10200	5.86
COc1ccc(-n2nnc(C(O)c3c(Cl)ccc4cncn34)c2C)cc1 (racemic) [Example 20, rac-(6-Chloro-imidazo[1,5-a]pyridin-5-yl)-[1-(4-methoxy-phenyl)-5-methyl-1H-[1,2,3]triazol-4-yl]-methanol]	14.5	5260	2.78
COc1cc(F)c(-n2cc([C@H](O)c3c(C4CC4)ncc4cncn34)nn2)cc1F [Example 22, (R)-(6-Cyclopropyl-imidazo[1,5-a]pyrazin-5-yl)-[1-(2,5-difluoro-4-methoxy-phenyl)-1H-[1,2,3]triazol-4-yl]-methanol]	20.2	> 10200	6.36
Oc1ccc(-n2cc(C(O)c3c(C4CC4)ccc4cncn34)nn2)cc1 (racemic) [Example 14, rac-4-{4-[(6-Cyclopropyl-imidazo[1,5-a]pyridin-5-yl)-hydroxy-methyl]-[1,2,3]triazol-1-yl}-phenol]	34.6	> 10200	5.05
O[C@@H](c1cn(-c2ccccc2)nn1)c1c(Cl)ccc2cncn12 [Example 1a, (R)-(6-Chloro-imidazo[1,5-a]pyridin-5-yl)-(1-phenyl-1H-[1,2,3]triazol-4-yl)-methanol]	193	9110	5.07
COc1cc(F)c(-n2nnc(C(O)c3c(Cl)ccc4cncn34)c2C)cc1Cl (racemic) [Example 39, rac-[1-(5-Chloro-2-fluoro-4-methoxy-phenyl)-5-methyl-1H-[1,2,3]triazol-4-yl]-(6-chloro-imidazo[1,5-a]pyridin-5-yl)-methanol]	6.94	7940	5.26
OC(c1cn(-c2ccccc2)nn1)c1c(Cl)ccc2cncn12 (racemic) [Example 1, rac-(6-Chloro-imidazo[1,5-a]pyridin-5-yl)-(1-phenyl-1H-[1,2,3]triazol-4-yl)-methanol]	246	> 10200	9.6
O[C@@H](c1cn(-c2ccc(OCC3(F)COC3)c(F)c2)nn1)c1c(C2CC2)ncc2cncn12 [Example 28, (R)-(6-Cyclopropyl-imidazo[1,5-a]pyrazin-5-yl)-{1-[3-fluoro-4-(3-fluoro-oxetan-3-ylmethoxy)-phenyl]-1H-[1,2,3]triazol-4-yl}-methanol]	19.5	> 10200	6.28
COc1ccc(-n2cc([C@H](O)c3c(C4CC4)ccc4cncn34)nn2)cc1Cl [Example 8a, (R)-[1-(3-Chloro-4-methoxy-phenyl)-1H-[1,2,3]triazol-4-yl]-(6-cyclopropyl-imidazo[1,5-a]pyridin-5-yl)-methanol]	18.9	> 10200	9.85
O[C@@H](c1cn(-c2ccc(N3CCCC3)cc2)nn1)c1c(C2CC2)ncc2cncn12 [Example 40, (R)-(6-Cyclopropyl-imidazo[1,5-a]pyrazin-5-yl)-[1-(4-pyrrolidin-1-yl-phenyl)-1H-[1,2,3]triazol-4-yl]-methanol]	154	> 10200	16.5
CCOc1ccc(-n2cc(C(O)c3c(C4CC4)ncc4cncn34)nn2)cn1 (racemic) [Example 13, rac-(6-Cyclopropyl-imidazo[1,5-a]pyrazin-5-yl)-[1-(6-ethoxy-pyridin-3-yl)-1H-[1,2,3]triazol-4-yl]-methanol]	326	> 10200	27.2
COCc1ccc(-n2cc([C@H](O)c3c(C4CC4)ncc4cncn34)nn2)cc1 [Example 24, (R)-(6-Cyclopropyl-imidazo[1,5-a]pyrazin-5-yl)-[1-(4-methoxymethyl-phenyl)-1H-[1,2,3]triazol-4-yl]-methanol]	399	> 10200	8.36
COc1ccc(-n2cc(C(O)c3c(C4CC4)ncc4cncn34)nn2)cc1 (racemic) [Example 17, rac-(6-Cyclopropyl-imidazo[1,5-a]pyrazin-5-yl)-[1-(4-methoxy-phenyl)-1H-[1,2,3]triazol-4-yl]-methanol]	172	> 10200	20.4
Oc1ccc(-n2cc([C@H](O)c3c(C4CC4)ncc4cncn34)nn2)cc1F [Example 27, 4-{4-[(R)-(6-Cyclopropyl-imidazo[1,5-a]pyrazin-5-yl)-hydroxy-methyl]-[1,2,3]triazol-1-yl}-2-fluoro-phenol]	47.4	> 10200	5.6
OC(c1cn(-c2ccc(OCC3(F)COC3)cc2)nn1)c1c(C2CC2)ncc2cncn12 (racemic) [Example 16, rac-(6-Cyclopropyl-imidazo[1,5-a]pyrazin-5-yl)-{1-[4-(3-fluoro-oxetan-3-ylmethoxy)-phenyl]-1H-[1,2,3]triazol-4-yl}-methanol]	94.6	> 10200	33.2
O[C@@H](c1cn(-c2ccccc2)nn1)c1c(C2CC2)ncc2cncn12 [Example 3a, (R)-(6-Cyclopropyl-imidazo[1,5-a]pyrazin-5-yl)-(1-phenyl-1H-[1,2,3]triazol-4-yl)-methanol]	282	> 10200	16.7
Cc1c(C(O)c2c(Cl)ccc3cncn23)nnn1-c1ccc(O)c(Cl)c1 (racemic) [Example 43, rac-2-Chloro-4-{4-[(6-chloro-imidazo[1,5-a]pyridin-5-yl)-hydroxy-methyl]-5-methyl-[1,2,3]triazol-1-yl}-phenol]	64.2	832	3.88
Cc1c(C(O)c2c(Cl)ccc3cncn23)nnn1-c1ccc(O)c(F)c1 (racemic) [Example 48, rac-4-{4-[(6-Chloro-imidazo[1,5-a]pyridin-5-yl)-hydroxy-methyl]-5-methyl-[1,2,3]triazol-1-yl}-2-fluoro-phenol]	29	1460	2.29
COc1ccc(-n2cc(C(O)c3c(C4CC4)ncc4cncn34)nn2)cc1Cl (racemic) [Example 11, rac-[1-(3-Chloro-4-methoxy-phenyl)-1H-[1,2,3]triazol-4-yl]-(6-cyclopropyl-imidazo[1,5-a]pyrazin-5-yl)-methanol]	37.1	> 10200	12.5
COc1c(F)cc(-n2cc([C@H](O)c3c(C4CC4)ncc4cncn34)nn2)cc1Cl [Example 26, (R)-[1-(3-Chloro-5-fluoro-4-methoxy-phenyl)-1H-[1,2,3]triazol-4-yl]-(6-cyclopropyl-imidazo[1,5-a]pyrazin-5-yl)-methanol]	74.3	> 10200	4.5
COc1ccc(-n2cc(C(O)c3c(C4CC4)ccc4cncn34)nn2)cc1 (racemic) [Example 4, rac-(6-Cyclopropyl-imidazo[1,5-a]pyridin-5-yl)-[1-(4-methoxy-phenyl)-1H-[1,2,3]triazol-4-yl]-methanol]	42.2	> 10200	3.7
CC(C)(O)COc1ccc(-n2cc([C@H](O)c3c(C4CC4)ncc4cncn34)nn2)cc1F [Example 29, 1-(4-{4-[(R)-(6-Cyclopropyl-imidazo[1,5-a]pyrazin-5-yl)-hydroxy-methyl]-[1,2,3]triazol-1-yl}-2-fluoro-phenoxy)-2-methyl-propan-2-ol]	29.9	> 10200	7.74
